Values of other authors in patent US7803402B2, “Pharmaceutical preparations” (priority 2002, dated 2010).

Experiments:
[1] = in vivo
[2] = cefixime in the circulation

eliminated by nonrenal mechanisms [1]: Up to 60%
placental transfer [1]: crosses the placenta
removal by dialysis [1]: not substantially removed
solubility in dehydrated alcohol (dehydrated alcohol): sparingly soluble
solubility in ethyl acetate (ethyl acetate): practically insoluble
solubility in methyl alcohol (methyl alcohol): freely soluble
solubility in water (water): slightly soluble
bound to plasma proteins [2]: About 65%
SMILES: C=CC1=C(C(=O)O)N2C(=O)[C@@H](NC(=O)/C(=N\OCC(=O)O)c3csc(N)n3)[C@H]2SC1 [Cefixime]
